Source: US6562839B1, “6-substituted heteroquinolinecarboxylic acid derivatives and addition salts thereof and processes for the preparation of both” (Kyorin Pharmaceutical Co., Ltd., priority 1999, dated 2003)
Where a name gives a salt, the structure may show the parent alone.

molecular target: AMPA receptor; test: Binding experiment against AMPA receptor ([3H]-AMPA binding, crude synaptic membranes from cerebral cortex); conditions: rat cerebral cortex crude synaptic membranes; [3H]-AMPA 5 nmol/L, potassium thiocyanate 100 mmol/L, 30 minutes at 0° C.; IC50 converted to Ki
Method: Binding Experiment Against AMPA Receptor
To a crude synaptic membranes preparation prepared from cerebral cortex in rat were added [^3H]-AMPA (final concentration: 5 nmol/L) that binds selectively to AMPA receptors, potassium thiocyanate (final concentration: 100 mmol/L) and testing compound, and the mixture was incubated for 30 minutes at 0° C. After the reaction was stopped by suction filtration, the radioactivity on filter was measured with liquid scintillation counter. The specific binding level of [^3H]-AMPA was determined by subtracting the non-specific binding level in the presence of glutamic acid (0.1 mmol/L) from total binding level. The [^3H]-AMPA binding in the absence of testing compound was put on 100, and the concentration of compound to decrease by 50% (IC50 value) was determined, which was converted to Ki value to calculate the binding capacity of each compound to AMPA receptor (Eur. J. Pharmacol., 1993, 246, 195-204).

Row | SMILES | Ki [nM]
1 | O=C(Nc1ccccc1)OCc1cn(-c2cc3cc(C(=O)O)c(=O)[nH]c3cc2[N+](=O)[O-])cn1 [Example 2, 1,2-Dihydro-7-nitro-2-oxo-6-(4-((phenylcarbamoyloxy)methyl)imidazole-1-yl)quinoline-3-carboxylic acid] | 22.4
2 | O=C(Nc1ccccc1F)OCc1cn(-c2cc3cc(C(=O)O)c(=O)[nH]c3cc2[N+](=O)[O-])cn1 [Example 6] | 8.22
3 | O=C(Nc1cccc(C(=O)O)c1)OCc1cn(-c2cc3cc(C(=O)O)c(=O)[nH]c3cc2[N+](=O)[O-])cn1 [Example 15, 6-(4-(((3-Carboxyphenyl)carbamoyloxy)methyl)imidazole-1-yl)-1,2-dihydro-7-nitro-2-oxoquinoline-3-carboxylic acid] | 17.8
4 | O=C(Nc1ccc(C(=O)O)cc1)OCc1cn(-c2cc3cc(C(=O)O)c(=O)[nH]c3cc2[N+](=O)[O-])cn1 [Example 16, 6-(4-(((4-Carboxyphenyl)carbamoyloxy)methyl)imidazole-1-yl)-1,2-dihydro-7-nitro-2-oxoquinoline-3-carboxylic acid] | 16.5
5 | CCOC(=O)c1ccc(NC(=O)OCc2cn(-c3cc4cc(C(=O)OCC)c(=O)[nH]c4cc3C(F)(F)F)cn2)cc1 [Example 18, Ethyl 1,2-dihydro-6-(4-(((4-ethoxycarbonylphenyl)carbamoyloxy)methyl)imidazole-1-yl)-2-oxo-7-trifluoromethylquinoline-3-carboxylate] | 18.4

tested on: not given; test: not given; conditions: not given

Row | SMILES | melting point
6 | O=C(Nc1ccccc1F)OCc1cn(-c2cc3cc(C(=O)O)c(=O)[nH]c3cc2[N+](=O)[O-])cn1 (as salt: HCl) [Example 6] | 226 to 228 °C
7 | O=C(Nc1ccc(C(=O)O)cc1)OCc1cn(-c2cc3cc(C(=O)O)c(=O)[nH]c3cc2C(F)(F)F)cn1 [Example 19, 6-(4-(((4-Carboxyphenyl)carbamoyloxy)methyl)imidazole-1-yl)-1,2-dihydro-2-oxo-7-trifluoromethylquinoline-3-carboxylic acid] | 218 to 220 °C
8 | O=C(Nc1ccccc1Br)OCc1cn(-c2cc3cc(C(=O)O)c(=O)[nH]c3cc2C(F)(F)F)cn1 [Example 25, 6-(4-(((2-Bromophenyl)carbamoyloxy)methyl)imidazole-1-yl)-1,2-dihydro-2-oxo-7-trifluoromethylquinoline-3-carboxylic acid] | 145 to 147 °C
9 | O=C(NCc1ccccc1)OCc1cn(-c2cc3cc(C(=O)O)c(=O)[nH]c3cc2C(F)(F)F)cn1 [Example 32] | 169 to 171 °C
10 | O=C(Nc1ccccc1)OCc1cn(-c2cc3cc(C(=O)O)c(=O)[nH]c3cc2Cl)cn1 [Example 41, 7-Chloro-1,2-dihydro-2-oxo-6-(4-((phenylcarbamoyloxy)methyl)imidazole-1-yl)quinoline-3-carboxylic acid] | 180 to 182 °C
11 | O=C(Nc1cccc(C(=O)O)c1)OCc1cn(-c2cc3cc(C(=O)O)c(=O)[nH]c3cc2Cl)cn1 [Example 43, 6-((((3-Carboxyphenyl)carbamoyloxy)methyl)imidazole-1-yl)-7-chloro-1,2-dihydro-2-oxoquinoline-3-carboxylic acid] | 263 to 265 °C (dec.)
12 | O=C(Nc1ccc(C(=O)O)cc1)OCc1cn(-c2cc3cc(C(=O)O)c(=O)[nH]c3cc2Cl)cn1 [Example 44, 6-((((4-Carboxyphenyl)carbamoyloxy)methyl)imidazole-1-yl)-7-chloro-1,2-dihydro-2-oxoquinoline-3-carboxylic acid] | 249 to 251 °C
